According to patent publication US8809298B2, “Methods, compositions, unit dosage forms, and kits testing for pharmacologic stress testing with reduced side effects” (Adenobio N.V., priority 2006, dated 2014):
Values joined by “and” are separate entries in the source; they are usually repeats but may differ in a detail not shown here. Identical values can stand only once.

Key:
[1] = system: patients suffering from ischemic heart disease; test: Transthoracic doppler echocardiography (TTDE): blood flow velocity in the left anterior descending coronary artery (LAD); format: in vivo, human; details: for Mean velocity ADE Max / Peak velocity ADE Max: adenosine alone 140 μg/kg/min IV, under stress conditions; for Mean velocity ADE Min / Peak velocity ADE Min: at rest (basal conditions) before adenosine 140 μg/kg/min; for MV-DIP Min / PV-DIP Min: at rest, dipyridamole alone arm
Experimental: In the combined administration, each of the two agents was administered at a dosage lower than its clinically preferred dosage when used as a single agent for myocardial perfusion imaging. Effects were measured using noninvasive transthoracic doppler echocardiography (TTDE).
The protocol was designed as follows.
Forty (40) consecutive patients suffering from ischemic heart disease were enrolled. Each patient served as their own control.
[…] These total doses are between about 4-6% of the lowest single-agent total dose of dipyridamole (i.e., 0.56 mg/kg, infused over a total of 4 minutes).
This dose is half the standard single-agent dosage rate of 140 μg/kg/min.

coronary patients [2] = test: Phase II SPECT imaging study: stress scores, 17-segment model; format: in vivo, human; set-up: key: sum of abnormal segment scores, each 0 = normal to 4 = no uptake; details: adenosine alone 140 μg/kg/min; Series I, individual patients 1-10; listed as Adenoscan
Experimental: The study, which is ongoing, is a mono-center, single-blind, 2-arm, cross-over trial.
Only those patients in whom an ischemic zone was detected were declared eligible for the second test, and were enrolled in the study if other inclusion criteria were satisfied.
SPECT images were acquired as per the standard approach performed the preceding week.
Randomization of SPECT images, and their analysis by two blinded readers, took place every 10 patients. Anonymous and randomized images were assessed using the standard 17-segment model and the semi-quantitative visual score method on a 5-point scale (from 0 to 4).
The “stress score” is the image of ischemia in one or more of the 17 cardiac segments, as scored from 0 to 4 by the blinded reader using the following scale: normal perfusion=0, mild reduction in counts=1, moderate reduction in counts=2, severe reduction=3, absence of uptake=4). Normally, a zone of ischemia is certain when a score ≧4 is noted. A stress score sums the scores of all abnormal segments.
“Stress score A” is the image score difference between stress conditions between adenosine alone and rest conditions. […] “Delta score” is the difference between “Stress score A” and “Stress score B.” It must not be >2 […]

coronary patients [3] = test: Safety of the procedure in the Phase II SPECT study: adverse events, visual scale, ST changes on EKG; format: in vivo, human
Experimental: Given the similar adverse effect profile, the 40 μg/kg dipyridamole dose is currently preferred, since it tends to show greater efficacy.
Table 13 gives adverse event severity cumulated scores, evaluated on a visual scale (going from 0 to 10), for the first 27 patients.
At this point in time, no difference in the occurrence of A2 receptor-related side effects, or severity of symptoms, has become clearly apparent as between the combination stressor and Adenoscan. In contrast, the reduction in the occurrence (−43%) and severity (−69%) of chest pain (an A1 receptor-related adverse effect) has already become manifest in the first 27 patients. […] The difference in ST-variation for each patient alone is not significant, but the total difference has achieved significance, with a clear trend in favor of the combination. In the table below (Table 14) ST-changes/baseline are expressed in millimeters.

[4] = system: patients suffering from ischemic heart disease; test: Patient tolerance in Example 1: adverse events, VAS severity, EKG, vital signs; details: for Mean global visual analogue scale (VAS) score for the three main adverse events: total score of 30, ADE 140 μg/kg/min, SC adenosine 70 μg/kg/min
Source text: (§1) Primary efficacy end-points were peak and mean diastolic flow velocities (measured as reflecting coronary blood flow values). The secondary end-point was patient tolerance to the procedure.
(§2) VAS scores provide a measure of patient self-assessment of pain intensity/discomfort.

[5] = system: patients suffering from ischemic heart disease; details: human, in vivo, iv
Source text: as §1, §2

[6] = cited from earlier work
[7] = mean of 5 patients (DIP4 group)
[8] = mean of 5 patients (DIP6 group)
[9] = mean of 30 patients (DIP5 group)
[10] = at rest before adenosine infusion, individual patients (second control experiment)
[11] = at rest before first adenosine infusion, individual patients, listed as ADE1
[12] = at rest before first adenosine infusion, mean of 5 patients
[13] = at rest before second adenosine infusion, individual patients, listed as ADE2
[14] = at rest before second adenosine infusion, mean of 5 patients
[15] = first adenosine infusion 140 μg/kg/min, stress, mean of 5 patients
[16] = first vs second adenosine infusion 140 μg/kg/min, 5 patients
[17] = second adenosine infusion 140 μg/kg/min after 5 minute stabilization, stress, individual patients, listed as ADE2
[18] = second adenosine infusion 140 μg/kg/min, stress, mean of 5 patients
[19] = three minute adenosine infusion 140 μg/kg/min, stress, individual patients (second control experiment)
[20] = Adenoscan alone 140 μg/kg/min, n=27
[21] = visual scale 0 to 10, cumulated over first 27 patients
[22] = adenosine alone 140 μg/kg/min, 40 patients
[23] = dipyridamole alone, bolus 28 μg/kg, individual patient
[24] = dipyridamole alone, bolus 35 μg/kg, individual patients
[25] = dipyridamole alone, bolus 40 μg/kg, individual patients

With `Nc1ncnc2c1ncn2[C@@H]1O[C@H](CO)[C@@H](O)[C@H]1O` [ADE, adenosine] the “Differences in velocity measurements between first and second adenosine infusions” value ([1]; 140 μg/kg/min twice, 5 patients, P>0.05) was “No statistically significant differences”, the “Mean velocity ADE Max” value ([1]; (DIP5 group)) was 61.4 cm/s and the “Mean velocity ADE Max” value ([1]; cumulated, all 40 patients) was 63.6 cm/s. The “Peak velocity ADE Max” value ([1]; cumulated, all 40 patients) was 85.3 cm/sec, the “Mean velocity ADE Max” value [1, 7] was 60.4 cm/s and the “Peak velocity ADE Max” value [1, 7] was 80 cm/sec. The “Mean velocity ADE Max” value [1, 8] was 80.2 cm/s, the “Peak velocity ADE Max” value [1, 8] was 107 cm/sec and the “Peak velocity ADE Max” value [1, 9] was 82.6 cm/sec. The “Mean velocity ADE Min” value ([1]; cumulated, all 40 patients) was 23.7 cm/s, the “Peak velocity ADE Min” value ([1]; cumulated, all 40 patients) was 31.2 cm/sec and the “Mean velocity ADE Min” value [1, 7] was 22.2 cm/s. For the same compound, the “Peak velocity ADE Min” value [1, 7] was 28 cm/sec, the “Mean velocity ADE Min” value [1, 8] was 28.2 cm/s and the “Peak velocity ADE Min” value [1, 8] was 37.6 cm/sec. For the same compound, the “Mean velocity ADE Min” value [1, 9] was 23.1 cm/s, the “Peak velocity ADE Min” value [1, 9] was 30.6 cm/sec and the “MV-ADE Min” value [1, 10] was 21 cm/sec and 23 cm/sec (2×) and 25 cm/sec and 20 cm/sec. For the same compound, the “PV-ADE Min” value [1, 10] was 25 cm/sec and 33 cm/sec (2×) and 27 cm/sec and 32 cm/sec, the “MV-ADE1 Min” value [1, 11] was 25 cm/s and 17 cm/s and 22 cm/s and 23 cm/s and 20 cm/s and the “PV-ADE1 Min” value [1, 11] was 34 cm/sec and 23 cm/sec and 30 cm/sec (2×) and 28 cm/sec. For the same compound, the “MV-ADE1 Min, Mean” value [1, 12] was 21.4 cm/s, the “PV-ADE1 Min, Mean” value [1, 12] was 29 cm/sec and the “MV-ADE2 Min” value [1, 13] was 23 cm/s and 16 cm/s and 22 cm/s and 21 cm/s and 20 cm/s. The “PV-ADE2 Min” value [1, 13] was 31 cm/sec and 22 cm/sec and 29 cm/sec and 26 cm/sec and 25 cm/sec, the “MV-ADE2 Min, Mean” value [1, 14] was 20.4 cm/s and the “PV-ADE2 Min, Mean” value [1, 14] was 26.6 cm/sec. The “PV-ADE1 Max” value ([1]; first adenosine infusion 140 μg/kg/min, stress, individual patients (first control experiment), listed as ADE1) was 68 cm/sec and 65 cm/sec and 102 cm/sec and 73 cm/sec and 70 cm/sec, the “MV-ADE1 Max” value ([1]; first adenosine infusion 140 μg/kg/min, stress, individual patients, listed as ADE1) was 49 cm/s and 48 cm/s and 75 cm/s and 53 cm/s and 50 cm/s and the “MV-ADE1 Max, Mean” value [1, 15] was 55 cm/s. For the same compound, the “PV-ADE1 Max, Mean” value [1, 15] was 75.6 cm/sec, the “Max velocity differential MV (ADE1 − ADE2)” value [1, 16] was “(ADE2) = 2.4 cm/sec” and the “Max velocity differential PV (ADE1 − ADE2)” value [1, 16] was “(ADE2) = 4.8 cm/sec”. The “MV-ADE2 Max” value [1, 17] was 45 cm/sec and 48 cm/sec (2×) and 75 cm/sec and 47 cm/sec, the “PV-ADE2 Max” value [1, 17] was 60 cm/sec and 66 cm/sec and 103 cm/sec and 63 cm/sec and 62 cm/sec and the “MV-ADE2 Max, Mean” value [1, 18] was 52.6 cm/s. The “PV-ADE2 Max, Mean” value [1, 18] was 70.8 cm/sec, the “MV-ADE Max” value [1, 19] was 71 cm/s and 67 cm/s and 86 cm/s and 64 cm/s and 61 cm/s and the “PV-ADE Max” value [1, 19] was 88 cm/sec and 92 cm/sec and 112 cm/sec and 84 cm/sec (2×). For the same compound, the “Stress score A (Adenoscan)” value (coronary patients [2]) was 5 (5×) and 4 (2×) and 14 and 13 and 7, the “Chest pain: # patients reporting event, ADE” value (coronary patients [3]; [20]) was 14 and the “Dyspnea: # patients reporting event, ADE” value (coronary patients [3]; [20]) was 11. For the same compound, the “Flushing: # patients reporting event, ADE” value (coronary patients [3]; [20]) was 14, the “ST-changes/baseline, Adenosine 140 μg/kg/mn” value (coronary patients [3]; EKG, individual patients with ST variations (6 of 27)) was 0.5 millimeters and 1 millimeters (3×) and 0.8 millimeters and 1.2 millimeters and the “ST-changes/baseline, Adenosine 140 μg/kg/mn, Total” value (coronary patients [3]; EKG, total of 6 patients) was 5.5 millimeters. The “Chest pain: adverse event severity cumulated score” value (coronary patients [3]; [21]) was 60, the “Dyspnea: adverse event severity cumulated score” value (coronary patients [3]; [21]) was 40 and the “Flushing: adverse event severity cumulated score” value (coronary patients [3]; [21]) was 43.5. The “Mean global visual analogue scale (VAS) score for the three main adverse events” value (from here on “Mean global visual analogue scale”) ([4]; Group DIP4 (dipyridamole 35 μg/kg in SC), n=5) was 5.4, the “Mean global visual analogue scale” value ([4]; Group DIP5 (dipyridamole 28 μg/kg in SC), n=30) was 5.95 and the “Mean global visual analogue scale” value ([4]; Group DIP6 (dipyridamole 23 μg/kg in SC), n=5) was 8.2. For the same compound, the “Symptoms under ADE” value ([4]; adenosine 140 μg/kg/min, individual patients (second control experiment)) was “None (2×) and Dyspnea and Flushing (2×)”, the “Symptoms under ADE: score” value ([4]; adenosine 140 μg/kg/min, score out of 10, individual patients) was 5/10 and 8/10 and 6/10 and the “Chest pain: # patients reporting events, ADE” value [4, 22] was 9. The “Chest pain: frequency, ADE” value [4, 22] was 22.5%, the “Dyspnea: # patients reporting events, ADE” value [4, 22] was 20 and the “Dyspnea: frequency, ADE” value [4, 22] was 50%. For the same compound, the “Flushing: # patients reporting events, ADE” value [4, 22] was 21 and the “Flushing: frequency, ADE” value [4, 22] was 52.5%.

With `OCCN(CCO)c1nc(N2CCCCC2)c2nc(N(CCO)CCO)nc(N3CCCCC3)c2n1` [DIP, dipyridamole] the “MV-DIP Min” value ([1]; 28 μg/kg, individual patient) was 19 cm/s, the “PV-DIP Min” value ([1]; 28 μg/kg, individual patient) was 23 cm/sec and the “MV-DIP Min” value ([1]; 35 μg/kg, individual patients) was 18 cm/s and 22 cm/s. The “PV-DIP Min” value ([1]; 35 μg/kg, individual patients) was 21 cm/sec and 30 cm/sec, the “MV-DIP Min” value ([1]; 40 μg/kg, individual patients) was 23 cm/s and 24 cm/s and the “PV-DIP Min” value ([1]; 40 μg/kg, individual patients) was 33 cm/sec and 34 cm/sec. The “Effect on peak and mean diastolic velocities” value ([1]; dipyridamole alone, IV bolus 28 to 40 μg/kg, 5 patients) was “did not modify”, the “MV-DIP Max” value [1, 23] was 21 cm/s and the “PV-DIP Max” value [1, 23] was 26 cm/sec. For the same compound, the “MV-DIP Max” value [1, 24] was 20 cm/s and 28 cm/s, the “PV-DIP Max” value [1, 24] was 23 cm/sec and 40 cm/sec and the “MV-DIP Max” value [1, 25] was 25 cm/s and 29 cm/s. For the same compound, the “PV-DIP Max” value [1, 25] was 35 cm/sec and 40 cm/sec, the “Symptoms during a follow-up of 10 minutes” value [5] was “No symptoms” and the Stability in solvents ([6]; pH>4, long term) was “unstable in the long term”. The Solubility in saline ([6]; saline) was “poorly soluble”.
